The subject of one data set is 2008. Description: MTT cytotoxicity assay, 2D monolayer. In kind it is cell-based, human. The conditions noted are these: 72 h, MTT test, ovarian cancer, read-out: IC50 (µM) ± S.D. 2008. The text has this: (§1) Human lung (A549), colon (HCT-15 and LoVo) and breast (MCF-7) carcinoma cell lines were obtained from American Type Culture Collection (ATCC, Rockville, MD, USA). Human pancreatic BxPC3 carcinoma cells were obtained from European Collection of Cell Culture (ECACC, Salisbury, UK). Human ovarian 2008 cancer cells were kindly provided by Prof. G. Marverti (Dept. of Biomedical Science of Modena University, Modena, Italy). Human squamous cervical A431 carcinoma cells were kindly provided by Prof. F. Zunino (Division of Experimental Oncology B, Istituto Nazionale dei Tumori, Milan, Italy). The LoVo-OXP cells were obtained as previously described. Cell lines were maintained in culture in the logarithmic phase at 37 °C in a 5% carbon dioxide atmosphere using the following media added of 10% fetal calf serum (Euroclone, Milan, Italy), antibiotics (50 units/mL penicillin and 50 μg/mL streptomycin), and 2 mM L-glutamine: (i) RPMI-1640 medium (Euroclone) for HCT-15, A431, MCF-7, BxPC3 and 2008 cells; (ii) F-12 HAM’S (Sigma Chemical Co.) for A549, LoVo and LoVo-OXP cells.
(§2) The growth inhibitory effect towards 2D tumor cell lines was evaluated by means of MTT assay as previously described. IC50 values were calculated by four parameters logistic (4-PL) model. All the values are the means ± SD of not less than five measurements starting from three different cell cultures.
(§3) The in vitro antitumor activity of copper(II) complexes 1–3 and the uncoordinated ligands [HC(COOH)(pz^Me2)2], [HC(COOH)(pz)2] and [HC(COOH)(tz)2] was evaluated against a panel of human cancer cell lines derived from solid tumors. Adherent cell lines representative of cervical (A431), pancreatic (BxPC3) colon (HCT-15), breast (MCF-7), lung (A549), and ovarian (2008) cancers, differently sensitive to cisplatin, were exposed to the indicated compounds for 72 h.
In general terms: Formazan colour is commonly taken as a measure of viable cells.

For a further data set, the system named is BxPC3. Description: MTT cytotoxicity assay, 2D monolayer. The conditions noted are these: 72 h, MTT test, pancreatic carcinoma; read-out: IC50 (µM) ± S.D. BxPC3. Format: cell-based, human.
Excerpt: as §1, §2, §3

The subject of a further data set is A549. Description: MTT cytotoxicity assay, 2D monolayer. In kind it is cell-based, human. The conditions noted are these: 72 h, MTT test, lung carcinoma, read-out: IC50 (µM) ± S.D. A549.
Excerpt: as §1, §2, §3

The next data set concerns A431. In words: MTT cytotoxicity assay, 2D monolayer. In kind it is cell-based, human. The conditions noted are these: 72 h, MTT test, cervical carcinoma; read-out: IC50 (µM) ± S.D. A431.
Excerpt: as §1, §2, §3

The next data set deals with HCT-15. In words: MTT cytotoxicity assay, 2D monolayer. Format: cell-based, human. The conditions noted are these: 72 h, MTT test, colon carcinoma, read-out: IC50 (µM) ± S.D. HCT-15.
Excerpt: as §1, §2, §3

Another data set has as its system MCF-7. Description: MTT cytotoxicity assay, 2D monolayer. In kind it is cell-based, human. The conditions noted are these: 72 h, MTT test, breast carcinoma, read-out: IC50 (µM) ± S.D. MCF-7.
Excerpt: as §1, §2, §3

Data set [1] relates to HCT-15 colon cancer cell spheroids. In words: Acid phosphatase (APH) assay in 3D spheroids. The conditions noted are these: 72 h, APH test, read-out: IC50 (µM) ± S.D. HCT-15 spheroids. Format: cell-based, human. As for the experimental part:
Spheroid cultures were obtained by seeding 2.5 × 10^3 HCT-15 cells/well in round bottom non-tissue culture treated 96 well-plate (Greiner Bio-one, Kremsmünster, Austria) in phenol red free RPMI-1640 medium (Sigma Chemical Co.), containing 10% FCS and supplemented with 20% methyl cellulose stock solution.
An APH modified assay was used for determining cell viability in 3D spheroids, as previously described. IC50 values were calculated with a four parameter logistic (4-PL) model. All the values are the means ± SD of not less than four independent experiments.
The in vitro antitumor efficacy of the newly developed compounds was also tested on 3D colon cancer cell culture models. Differently from 2D monolayer culture, 3D spheroid cell culture systems comprise cancer cells in various cell growth stages. Consequently, the multicellular cancer spheroid model is recognized to better reflect the tumor mass in vivo regarding drug permeation, cell interactions, gene expression, hypoxia and nutrient gradients with respect to monolayer cell cultures. Table 4 summarizes the IC50 values obtained after treatment of 3D cell spheroids of human HCT-15 colon cancer cells with copper(II) compounds as well as with cisplatin, as reference drug. In accordance with 2D chemosensitivity assays, complex 3 was scarcely effective, whereas complex 1 was as effective as cisplatin. […] We hypothesize that in this non-proliferative and very resistant tumor model the higher lipophilicity of 1, due to the presence of methyl substituents on the pyrazolyl rings, might be responsible for the enhanced compound penetration in the core area of spheroids.

Data set [2] has as its system panel of human cancer cell lines derived from solid tumors. In words: MTT cytotoxicity, whole panel of human cancer cell lines. In kind it is cell-based. The conditions noted are these: mean over the cell lines of Table 2, 72 h. As for the experimental part:
as §2, §3
(§4) HCT-15 colon cancer cells are notoriously poorly chemosensitive to cisplatin. […] As for cisplatin, the clinical effectiveness of OXP is seriously hampered by the cancer cell resistance and, at present, few other drug regimens are available for patients with OXP-refractory colorectal cancers. […] The RF values (calculated by dividing IC50 for resistant cells by those for sensitive ones) were about 10 times lower than that of OXP, excluding the occurrence of cross-resistance phenomena.

Another data set relates to LoVo-OXP. Description: MTT cytotoxicity assay, cross-resistance profile. The conditions noted are these: for IC50: 72 h, MTT test, oxaliplatin-resistant colon cancer cells, read-out: IC50 (µM) ± S.D. LoVo-OXP; for RF (resistance factor): RF = IC50 (resistant cells)/IC50 (wild-type cells). Format: cell-based, human.
Excerpt: as §1, §2, §4

In the next data set the test system is LoVo. Description: MTT cytotoxicity assay, cross-resistance profile. The conditions noted are these: 72 h, MTT test, oxaliplatin-sensitive colon cancer cells; read-out: IC50 (µM) ± S.D. LoVo. In kind it is cell-based, human.
Excerpt: as §1, §2, §4

Data set [3] has as its system 26S proteasome, chymotrypsin-like (CT-L) activity. Description: Proteasome inhibition, chymotrypsin-like (CT-L) activity. The conditions noted are these: isolated 26S rabbit proteasomes, 15 μM, 60 min. Format: biochemical. As to the method:
(§5) The purified rabbit 26S proteasome (Sigma Aldrich) was incubated for 60 min at 37 °C in assay buffer (50 mM Tris-HCl, pH 7.5, 250 mM sucrose, 5 mM MgCl2, 1 mM DTT, and 0.5 mM EDTA), in the presence of 15 µM of 1–3 or 10 µM Lactacystin. Afterwards, fluorogenic peptides were added and substrate hydrolysis was measured after 30 min by monitoring spectrofluorometrically the release of AMC (excitation at 370 nm, emission at 460 nm).
(§6) The ability of copper complexes to hamper the functioning of each individual proteasome active site, chymotrypsin-like (CT-L), trypsin-like (T-L), and caspase-like (C-L) activities was assessed in isolated 26S rabbit proteasomes after incubation with 15 μM of tested compounds. Lactacystin, an irreversible nonpeptidomimetic proteasome inhibitor, was used as a positive control. […] Conversely, no significant effects were recorded towards the T-L site. Even if the chymotrypsin-like sites are the major drug targets in cancer, it has been recently observed that co-targeting trypsin-like site increased cytotoxicity of copper complexes acting as proteasome inhibitors.

Data set [4] concerns 26S proteasome, caspase-like (C-L) activity. In words: Proteasome inhibition, caspase-like (C-L) activity. Format: biochemical. The conditions noted are these: isolated 26S rabbit proteasomes, 15 μM, 60 min. As for the experimental part:
as §5, §6

A further data set in a line: Stability to air. Format: physicochemical. The conditions noted are these: also as solutions.
Another data set can be described thus: Solubility. Format: physicochemical.
Another data set concerns LoVo cells. Description: Cellular uptake (intracellular copper by GF-AAS). Format: cell-based, human. The conditions noted are these: 24 h, 2 μM. As for the experimental part:
LoVo cells (2.5 × 10^6) were seeded in 75 cm^2 flasks in growth medium (20 mL). After overnight incubation, the medium was replaced, and the cells were treated with tested compounds for 24 h. Cell monolayers were then processed and mineralized as previously described. The sample was analyzed for copper by using a Varian AA Duo graphite furnace atomic absorption spectrometer (Varian, Palo Alto, CA, USA) at the wavelength of 324 nm. The calibration curve was obtained using known concentrations of standard solutions purchased from Sigma Chemical Co.
With the purpose of underling a possible correlation between cellular uptake efficiency and cytotoxicity, LoVo cells were treated for 24 h with equimolar concentrations (2 μM) of copper(II) complexes and the intracellular copper amount was quantified by means of Graphite Furnace Atomic Absorption Spectrometry (GF-AAS) analysis. […] In fact, the intracellular copper content detected in LoVo cells follows the same cytotoxicity trend 1 > 2 > 3.

Results on 7 compounds are retold here after publication PMC6539868, “Syntheses and Biological Studies of Cu(II) Complexes Bearing Bis(pyrazol-1-yl)- and Bis(triazol-1-yl)-acetato Heteroscorpionate Ligands” (Molecules, 2019).

The structures appear in SMILES notation. Like-named read-outs stand apart in the source and are kept apart here.

On to `N.N.[Cl][Pt][Cl]` [Cisplatin, cisplatin, reference compound], for which the IC50 (as a rule, the concentration that gives 50% inhibition) in the data set with 2008 is 2.2 ± 1 µM; in the data set with BxPC3 it was 7.3 ± 1.2 µM; with A549, 7.5 ± 1.2 µM; with A431, 1.7 ± 0.5 µM; in the data set with HCT-15 it was 15.3 ± 2.2 µM; in the data set with MCF-7, 8.8 ± 1.4 µM. The IC50 amounted to 65.9 ± 3.85 µM in data set [1] and 7.1 µM in data set [2].

`O=C1[O][Pt]2([NH][C@@H]3CCCC[C@H]3[NH]2)[O]C1=O` [Oxaliplatin, oxaliplatin, reference compound]: the half-inhibitory concentration (IC50) stood at 15.2 ± 2.2 µM in the data set on LoVo-OXP and 1.4 ± 0.7 µM in the data set with LoVo. Further, the “RF (resistance factor)” value in the data set on LoVo-OXP (LoVo-OXP/LoVo) was 10.9.

Consider `O=C(O)C(n1cccn1)n1cccn1` [[HC(COOH)(pz)2], bis(pyrazol-1-yl)acetic acid, reference compound], for which the IC50 in the data set with 2008 (Homo sapiens) is over 100 µM; in the data set on A549 (Homo sapiens, A549), over 100 µM; in the data set on HCT-15 (Homo sapiens, HCT-15), over 100 µM; in the data set with MCF-7 (Homo sapiens, MCF7), over 100 µM.

Take `Cc1cc(C)n(C(C(=O)O)n2nc(C)cc2C)n1` [[HC(COOH)(pz^Me2)2], bis(3,5-dimethylpyrazol-1-yl)acetic acid, reference compound]: the IC50 with 2008 (Homo sapiens) is over 100 µM; in the data set on A549 (Homo sapiens, A549), over 100 µM; with HCT-15 (Homo sapiens, HCT-15), over 100 µM; in the data set on MCF-7 (Homo sapiens, MCF7) it was over 100 µM.

Consider `O=C(O)C(n1cncn1)n1cncn1` [[HC(COOH)(tz)2], bis(1,2,4-triazol-1-yl)acetic acid, reference compound], for which the concentration for half-maximal inhibition (IC50) in the data set on 2008 (Homo sapiens) was over 100 µM; in the data set with A549 (Homo sapiens, A549), over 100 µM; in the data set on HCT-15 (Homo sapiens, HCT-15), over 100 µM; in the data set on MCF-7 (Homo sapiens, MCF7) it was over 100 µM.

On to `O=C(O)C(n1cccn1)n1cccn1.O=C(O)C(n1cccn1)n1cccn1.[Cu+2].[O-][Cl+3]([O-])([O-])[O-].[O-][Cl+3]([O-])([O-])[O-]` [compound 2, [HC(COOH)(pz)2]2Cu(ClO4)2], for which the IC50 was 7.9 ± 1.4 µM in the data set with 2008; 7.5 ± 1.2 µM in the data set on BxPC3; 5.5 ± 0.2 µM with A549; 12.7 ± 1.2 µM in the data set with A431; 9.3 ± 2.7 µM with HCT-15; 10.2 ± 2.5 µM with MCF-7. Moreover, the IC50 in data set [1] is 107.8 ± 1 µM; in data set [2], 8.9 µM; in the data set on LoVo-OXP, 4.9 ± 0.6 µM; in the data set on LoVo, 4 ± 0.5 µM. For the same compound, in [3], the “effect on CT-L proteasome activity” value was “able to affect CT-L and C-L activities, even if to a lesser extent than lactacystin”. For the same compound, in [4], the “effect on C-L proteasome activity” value is “able to affect CT-L and C-L activities, even if to a lesser extent than lactacystin”. Further, the air stability result in the data set “Stability to air” was “air stable even as solutions”. Also, in the data set “Solubility” (methanol, DMSO, acetonitrile), the “solubility in methanol, DMSO and acetonitrile” value is reported as “soluble”. Further, in the data set “Solubility” (water), the solubility in water entry is given as “soluble”. Besides, in the data set with LoVo-OXP (LoVo-OXP/LoVo), the “RF times lower than that of OXP” value is recorded as “about 10 times”. The “RF (resistance factor)” value with LoVo-OXP (LoVo-OXP/LoVo) is reported as 1.2.

For the compound `CO.O=C(O)C(n1cncn1)n1cncn1.O=C(O)C(n1cncn1)n1cncn1.[Cu+2].[O-][Cl+3]([O-])([O-])[O-].[O-][Cl+3]([O-])([O-])[O-]` [compound 3, [HC(COOH)(tz)2]2Cu(ClO4)2·CH3OH], the half-inhibitory concentration (IC50) with 2008 turned out to be 69.3 ± 4.7 µM; with BxPC3, 18.5 ± 4.4 µM; in the data set with A549 it was 24.5 ± 1.9 µM; with A431, 15.9 ± 5.8 µM; in the data set with HCT-15 it was 59.5 ± 2.7 µM; in the data set with MCF-7, 39.6 ± 4.6 µM. Besides, the IC50 in [1] is over 100 µM; in the data set on LoVo-OXP, 32.5 ± 1 µM; in the data set with LoVo, 15.3 ± 1 µM. Moreover, the “effect on CT-L proteasome activity” value in data set [3] is “able to affect CT-L and C-L activities, even if to a lesser extent than lactacystin”. For the same compound, the “cellular uptake efficiency (intracellular copper amount)” value in the data set with LoVo cells is “lowest cellular uptake efficiency”. In addition, in [4], the “effect on C-L proteasome activity” value was “able to affect CT-L and C-L activities, even if to a lesser extent than lactacystin”. Moreover, in the data set “Stability to air”, the air stability result is “air stable even as solutions”. Further, the “solubility in DMSO” value in “Solubility” (DMSO) is “soluble”. Besides, the “RF (resistance factor)” value in the data set with LoVo-OXP (LoVo-OXP/LoVo) was found to be 2.1.
